The results in this text go back to PMC7221760, “Structural and Functional Characterization of NadR from Lactococcus lactis” (Molecules, 2020).

Data set [1] deals with T1, NadRLl (Lactococcus lactis, UniProt Q9CE60).
T1 construct: gene nadR; NMNAT domain residues 8-177, RNK domain residues 178-379
T1 sequence (Q9CE60 1-379): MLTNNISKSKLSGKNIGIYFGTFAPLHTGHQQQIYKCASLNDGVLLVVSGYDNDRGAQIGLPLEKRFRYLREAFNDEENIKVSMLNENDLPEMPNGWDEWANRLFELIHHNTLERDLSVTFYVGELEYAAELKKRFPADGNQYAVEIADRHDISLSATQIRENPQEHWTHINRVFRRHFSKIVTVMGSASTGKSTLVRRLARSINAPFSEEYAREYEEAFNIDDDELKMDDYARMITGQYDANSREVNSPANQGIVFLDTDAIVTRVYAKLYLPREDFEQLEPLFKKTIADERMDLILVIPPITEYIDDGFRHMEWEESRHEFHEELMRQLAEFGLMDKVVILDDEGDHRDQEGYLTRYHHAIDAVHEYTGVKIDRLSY
Nature of the data set: X-ray crystal structure, […] Å. It counts as binding. The conditions noted are these: co-crystallised with 5 mM NAD and 5 mM Mg-AMP-PNP, not the active sites.

The target of data set [2] is T1, NadRLl. Nature of the data set: isothermal titration calorimetry. It counts as binding. The conditions noted are these: read-out: Dissociation Constant-KD. An excerpt:
isothermal titration calorimetry on NadRLl
Background: In ITC the heat of successive injections is recorded.

Data set [3] concerns the target T1, NadRLl. The data set is described as follows: LDH-coupled NADH absorbance at […] nm (NMN to NAD). It counts as biochemical. The conditions noted are these: substrate inhibition; 10 mM Mg-ATP; 100 mM Tris/HCl pH 7.5; 25 °C.
The target of data set [4] is T1, NadRLl. Nature of the data set: X-ray crystal structure, […] Å. The note with it: 5 mM NMN, pH 6.5; site between the two domains, not the active sites. It counts as binding.
For data set [5], the target named is T1, NadRLl. Nature of the data set: LDH-coupled NADH absorbance at […] nm (NR to NAD). It counts as biochemical. The note with it: substrate inhibition; 10 mM Mg-ATP; 100 mM Tris/HCl pH 7.5; 25 °C.
Data set [6] deals with T1, NadRLl. The data set is described as follows: X-ray crystal structure, […] Å. It counts as binding. The conditions noted are these: 5 mM NR, pH 6.5; site between the two domains, not the active sites.
Substrate in data set [7]: NC(=O)c1ccc[n+]([C@@H]2O[C@H](CO)[C@@H](O)[C@H]2O)c1
The data set is described as follows: purified protein. It counts as biochemical, Lactococcus lactis. The note with it: 10 mM Mg-ATP, 100 mM Tris/HCl pH 7.5, 25 °C, substrate-inhibition model.

Substrate in data set [8]: NC(=O)c1ccc[n+]([C@@H]2O[C@H](COP(=O)([O-])O)[C@@H](O)[C@H]2O)c1
The data set is described as follows: purified protein. It counts as biochemical, Lactococcus lactis. The note with it: 10 mM Mg-ATP, 100 mM Tris/HCl pH 7.5, 25 °C, substrate-inhibition model.

Substrate in data set [9]: Nc1ncnc2c1ncn2[C@@H]1O[C@H](COP(=O)(O)OP(=O)(O)OP(=O)(O)O)[C@@H](O)[C@H]1O
The data set is described as follows: purified protein. It counts as biochemical, Lactococcus lactis. The conditions noted are these: 1 mM NMN, 100 mM Tris/HCl pH 7.5, 25 °C, Mg-ATP, Hill coefficient 2.2 ± 0.3.

Broadly, the Kd is a measure of binding affinity in units of concentration. Regarding `Nc1ncnc2c1ncn2[C@@H]1O[C@H](COP(=O)(O)OP(=O)(O)NP(=O)(O)O)[C@@H](O)[C@H]1O` [AMP-PNP], at NadRLl [1] (mixture with NAD at site between the two domains), the “X-ray crystal structure, 3.00 Å” value was “we observed a mixture of NAD and AMP-PNP bound at this location”. Besides, the Kd on NadRLl [2] was determined as 13 ± 1 µM.
Regarding `Nc1ncnc2c1ncn2[C@@H]1O[C@H](COP(=O)(O)OP(=O)(O)OP(=O)(O)O)[C@@H](O)[C@H]1O` [ATP], the Kd on NadRLl [2] is 63 ± 1 µM.
On to `NC(=O)c1ccc[n+]([C@@H]2O[C@H](COP(=O)(O)OP(=O)(O)OC[C@H]3O[C@@H](n4cnc5c(N)ncnc54)[C@H](O)[C@@H]3O)[C@@H](O)[C@H]2O)c1` [NAD], for which, on NadRLl [1] (mixture with AMP-PNP at site between the two domains), the “X-ray crystal structure, 3.00 Å” value was “we observed a mixture of NAD and AMP-PNP bound at this location”.
As to `NC(=O)c1ccc[n+]([C@@H]2O[C@H](COP(=O)([O-])O)[C@@H](O)[C@H]2O)c1` [nicotinamide mononucleotide], the “Ki” value at NadRLl [3] stood at 25400 ± 10800 µM. Moreover, at NadRLl [4], the “X-ray crystal structure, 2.70 Å” value was “we obtained structures in the presence of NMN and NR, which both have bound substrates”.
Regarding `NC(=O)c1ccc[n+]([C@@H]2O[C@H](CO)[C@@H](O)[C@H]2O)c1` [nicotinamide riboside], the “Ki” value on NadRLl [5] came out at 31400 ± 8100 µM. Besides, the “X-ray crystal structure, 2.30 Å” value on NadRLl [6] is “we obtained structures in the presence of NMN and NR, which both have bound substrates”.

B1: NadRLl (Lactococcus lactis subsp. lactis Il1403) (protein)
chain: T1 sequence (Q9CE60 1-379)
notes: NMNAT domain residues 8-177, RNK domain residues 178-379
What is called Km is the concentration of substrate that gives half-maximal velocity. A word on the Vmax: it is the rate approached at saturating substrate. Turning to B1, in “purified protein [7]”, the Km was found to be 600 ± 100 µM and the Vmax came to 0.4 µmol/min/mg. Besides, in the data set “purified protein [8]”, the Km worked out at 500 ± 100 µM and the Vmax came out at 1.5 µmol/min/mg. Besides, in “purified protein [9]”, the K0.5 is reported as 5.2 ± 0.6 mM and the Vmax turned out to be 1.2 µmol/min/mg.
